Reference: patent US5808139A (Ligand Pharmaceuticals Incorporated, priority 1994, dated 1998)

Key:
[1] = test system: human progesterone receptor altered at the Tau-1 location; assay: Co-transfection assay in CV-1 cells, progesterone receptor altered at Tau-1, antagonist activity; format: cell-based; conditions: for Efficacy (% maximal response relative to RU-486), CV-1 cells: antagonist activity; for IC50: concentration required to reduce the maximal response by 50%, read-out: Potency (IC50), CV-1 cells
From the text: This assay is described in further detail in U.S. Pat. Nos. 4,981,784 and 5,071,773, which are incorporated herein by reference. The co-transfection assay provides a method for identifying functional ligands (either agonists which mimic, or antagonists which inhibit, the effect of hormones) for ligand-responsive receptor proteins.
The co-transfection assay provides a mechanism to evaluate ability of a compound to function as an agonist or antagonist of the activity modulated by an intracellular receptor. The co-transfection assay mimics an in vivo system in the laboratory. In the co-transfection assay, a cloned gene for an intracellular receptor is introduced by transfection (a procedure to induce cells to take up foreign genes) into a background cell substantially devoid of endogenous intracellular receptors. This introduced gene directs the recipient cells to make the intracellular receptor protein. A second gene is also introduced (co-transfected) into the same cells in conjunction with the intracellular receptor gene. This second gene functions as a reporter for the transcription-modulating activity of the target intracellular receptor. The reporter acts as a surrogate for the products normally expressed by a gene under control of the target receptor and its natural hormone.
A preferred reporter gene is one which expresses the firefly enzyme luciferase. The co-transfection assay can detect small molecule agonists or antagonists of target intracellular receptors. Exposing the cells to an agonist ligand increases reporter activity in the transfected cells that can be conveniently measured, reflecting ligand-dependent, intracellular receptor-mediated increases in reporter transcription. To detect antagonists, the co-transfection assay is carried out in the presence of a constant concentration of an agonist known to induce a defined reporter signal. Increasing concentrations of a test antagonist will decrease the reporter signal. The co-transfection assay is therefore useful to detect both agonists and antagonists of specific intracellular receptors. It determines not only whether a compound interacts with a particular intracellular receptor, but also whether this interaction mimics (agonizes) or blocks (antagonizes) the effects of the natural regulatory molecules on target gene expression.
Co-transfected cells are exposed to a medium to which is added the potential ligand that is being evaluated. If the candidate ligand diffuses into the cell and binds to the receptor and the resulting complex functions as an agonist, it binds to the co-transfected reporter gene and initiates transcription. When that gene is one that expresses, for example, luciferase, luciferase is produced which catalyzes a light-emitting reaction with its substrate luciferin. Thus, after cell lysis and the introduction of luciferin, the amount of light produced relative to the concentration of candidate ligand used in the assay provides a measure of the potency and efficacy of the compound tested. Antagonist activity is evaluated by adding the candidate ligand and a known agonist to the co-transfected cells.
The receptor cDNA was introduced in a mammalian expression vector under the control of the Rous Sarcoma virus LTR. […] A reporter vector was also transfected, containing a firefly luciferase gene under the control of the hormone-responsive promoter. […] The level of luciferase activity was then measured in cell extracts. Light emission is directly proportional to the effectiveness of the hormone-receptor complex in activating gene expression.
A total of three replicates per concentration point were tested for each compound, and the EC50 was calculated for each positive response. Both agonist and antagonist activity for each test compound was determined in parallel. […]

[2] = test system: progesterone receptor (T47D cells); assay: Antagonist assay in T47D (human breast cancer) cells (Tables 1 and 2); format: cell-based; conditions: for Efficacy (% maximal response relative to RU-486), T47D cells: antagonist activity; for IC50: concentration required to reduce the maximal response by 50%, read-out: Potency (IC50), T47D cells
From the text: The functional activities of the cyclocymopol analogues in the human breast cell line, T47D, were also investigated. T47D cells have proven to be a particularly useful model to investigate the molecular actions of sex steroids because they contain endogenous functional receptors for, and respond to, progestins, and their respective antagonists. […] In T47D cells, progestins induce de novo synthesis of a plasma-associated alkaline phosphatase, which has been reported to be similar, if not identical, to the alkaline phosphatase present in the normal breast and human milk. These tests were conducted according to the following illustrative example.
The assay was also run using T47D (human breast cancer) cells.

[3] = molecular target: T1, human progesterone receptor (Homo sapiens, UniProt P06401); assay: Progesterone receptor binding (displacement of 3H-progesterone, whole cell extract of transfected CV-1 cells); set-up: expressed in transfected cells; host or cells: CV-1 cells (calcium phosphate transfection), whole cell extract
T1 sequence (P06401 1-933): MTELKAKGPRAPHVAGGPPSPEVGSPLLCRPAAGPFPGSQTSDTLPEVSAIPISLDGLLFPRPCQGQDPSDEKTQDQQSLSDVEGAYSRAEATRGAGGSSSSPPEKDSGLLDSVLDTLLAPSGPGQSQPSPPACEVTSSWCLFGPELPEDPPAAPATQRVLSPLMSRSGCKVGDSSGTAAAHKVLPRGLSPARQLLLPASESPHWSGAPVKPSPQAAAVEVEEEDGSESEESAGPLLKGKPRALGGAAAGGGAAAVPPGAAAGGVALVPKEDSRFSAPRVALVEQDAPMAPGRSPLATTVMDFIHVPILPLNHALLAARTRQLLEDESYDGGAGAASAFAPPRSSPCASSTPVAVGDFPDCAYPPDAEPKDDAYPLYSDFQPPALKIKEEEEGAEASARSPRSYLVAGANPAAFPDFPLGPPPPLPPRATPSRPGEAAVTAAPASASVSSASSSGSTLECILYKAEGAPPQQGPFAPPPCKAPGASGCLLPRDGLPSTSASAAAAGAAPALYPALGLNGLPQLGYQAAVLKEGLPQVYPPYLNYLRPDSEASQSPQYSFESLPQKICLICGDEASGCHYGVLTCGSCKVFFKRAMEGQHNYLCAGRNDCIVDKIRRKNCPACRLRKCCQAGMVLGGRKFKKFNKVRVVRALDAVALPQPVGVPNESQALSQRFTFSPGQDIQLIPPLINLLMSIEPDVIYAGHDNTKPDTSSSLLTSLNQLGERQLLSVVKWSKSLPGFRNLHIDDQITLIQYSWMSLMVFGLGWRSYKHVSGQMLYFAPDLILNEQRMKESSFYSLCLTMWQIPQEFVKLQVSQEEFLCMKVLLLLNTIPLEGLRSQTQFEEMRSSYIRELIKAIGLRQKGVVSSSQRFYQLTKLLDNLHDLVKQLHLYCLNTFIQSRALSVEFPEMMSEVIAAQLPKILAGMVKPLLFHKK
Description: These tests were conducted according to the following illustrative example.
CO2 for 40 hours prior to harvest.
After incubation, cells were harvested and washed in phosphate buffered saline. Whole cell receptor extract was prepared by homogenizing the harvested cells in Tris-HCl buffer, pH=7.4, containing 30% glycerol, 1 mM EDTA, 12 mM monothioglycerol, 1 mM PMSF, and 0.5M potassium chloride. The homogenate was incubated at 4° C. for 60 min with resuspension every 10 min. The suspension was centrifuged (105,000×g, 60 min) and the supernatant was collected and flash frozen in liquid nitrogen and stored frozen at -70° C.
To a […] final volume incubation mixture, […] of 7.5% (w/v) dextran-coated charcoal suspension in gelatin phosphate buffer was added. The mixture was vortexed and incubated at 4° C. for 10 min and then centrifuged at 3000 rpm for 10 min. The amount of bound tritiated hormone was determined by liquid scintillation spectrophotometry of an aliquot of the supernatant. […]

| SMILES | Efficacy (% maximal response relative to RU-486), CV-1 cells [1] | IC50 [1] | Efficacy (% maximal response relative to RU-486), T47D cells [2] | IC50 [2] | Kd [3] |
| --- | --- | --- | --- | --- | --- |
| C=C1C=C(C)[C@@H](CCO)C(C)(C)[C@@H]1Cc1cc(OC)c(Br)cc1O (relative stereo) [JJ, trans-1-Methylidene-4-(2-hydroxy)ethyl-6-(2'-hydroxy-4'-bromo-5'-methoxyphenyl)methyl-3,5,5-trimethylcyclohex-2-ene] | 48% | 30 nM | 74% | 3600 nM | 625 nM |
| C=C1CCCCC1Cc1ccc([N+](=O)[O-])cc1 (stereo not shown) [Q, 1-Methylidene-2-(4'-nitrophenyl)methylcyclohexane] | 95% | 1200 nM | 65% | 225 nM | 245 nM |
| C=C1CC[C@@H](Br)C(C)(C)[C@@H]1Cc1cc(OC)c(C=O)cc1O [NN, (3R)-4'-Formylcyclocymopol monomethyl ether] | 31% | 2100 nM | 83% | 1800 nM | 409 nM |
| C=C1CCCC(C)(C)C1Cc1cc(OC)c(Br)cc1OC(=O)OC (stereo in doubt) [Compound D, (3S)-1-Debromocyclocymopol monomethyl ether, methyl carbonate] | 45% | 450 nM | 55% | 150 nM | 50 nM |
| C=C1CC[C@@H](Br)C(C)(C)[C@@H]1Cc1cc(OC)c(I)cc1O [V, (3R)-4'-Iodocyclocymopol monomethyl ether] | 95% | 1800 nM | 85% | 325 nM | 95 nM |
| C=C1C[C@H](CCCO)CC(C)(C)[C@@H]1Cc1cc(OC)c(Br)cc1O (relative stereo) [X, cis-1-Methylidene-2-(2'-hydroxy-4'-bromo-5'-methoxyphenyl)methyl-3,3-dimethyl-5-(3-hydroxypropyl)cyclohexane] | 99% | 1100 nM | 84% | 210 nM | 384 nM |
| C=C1CC[C@@H](C)C(C)(C)[C@@H]1Cc1cc(OC)c(Br)cc1O (relative stereo) [LL, trans-1-Methylidene-2-(2'-hydroxy-4'-bromo-5'-methoxyphenyl)methyl-3,3,4-trimethylcyclohexane] | 91% | 1600 nM | 74% | 500 nM | 269 nM |
| C=C1C[C@H](CCC2OCCO2)CC(C)(C)[C@@H]1Cc1cc(OC)c(Br)cc1O (relative stereo) [W, cis-1-Methylidene-2-(2'-hydroxy-4'-bromo-5'-methoxyphenyl)methyl-3,3-dimethyl-5-(propanal-1,3-dioxolane)cyclohexane] | 85% | 2900 nM | 85% | 380 nM | 362 nM |
| C=C1C[C@@](C)(CO)CC(C)(C)[C@@H]1Cc1cc(OC)c(Br)cc1O (relative stereo) [HH, trans-1-Methylidene-2-(2'-hydroxy-4'-bromo-5'-methoxyphenyl)methyl-3,3,5-trimethyl-5-(hydroxymethyl)cyclohexane] | 85% | 3000 nM | 81% | 1100 nM | 2310 nM |
| C=C1C[C@H](C)CC(C)(C)[C@@H]1Cc1cc(OC)c(Br)cc1O (relative stereo) [BB, cis-1-Methylidene-2-(2'-hydroxy-4'-bromo-5'-methoxyphenyl)methyl-3,3,5-trimethyleyclohexane] | 38% | 5140 nM | 41% | 7190 nM | 28 nM |
| CC1(C)CC=CC(=O)C1Cc1ccc([N+](=O)[O-])cc1 (stereo not shown) [MM, 6-(4'-Nitrophenyl)methyl-5.5-dimethylcyclohex-2-en-1-one] | 74% | 1770 nM | 90% | 390 nM | 10000 nM |
| C=C1CCCCC1Cc1cc(OC)c(Br)cc1O (stereo not shown) [Compound S, 1-Methylidene-2-(2'-hydroxy-4'-bromo-5'-methoxyphenyl)methylcyclohexane] | 90% | 1500 nM | 85% | 400 nM | 345 nM |
| C=C1[C@H](O)C[C@@H](Br)C(C)(C)[C@@H]1Cc1cc(OC)c(Br)cc1O [E, (3R,5R)-5-Hydroxycyclocymopol monomethyl ether] | 85% | 450 nM | 85% | 475 nM | 925 nM |
| C=C1CCCC(C)(C)C1Cc1cc(OC)c(Br)cc1OC(C)=O (racemic) [A, 1-Methylidene-2-(2'-acetoxy-4'-bromo-5'-methoxyphenyl)methyl-3,3-dimethylcyclohexane] | 55% | 225 nM | 70% | 200 nM | 100 nM |
